{"source": "patent US9315678B2", "about": "“Affinity of hardly soluble or insoluble substance solvent by water-soluble xylan” (Ezaki Glico Co., Ltd., priority 2006, dated 2016)", "assay_type_in_all_cases": "physicochemical", "key": {"[1]": {"experiment": "Carbon nanotube solubilizing capability of saccharide aqueous solutions (absorbance of supernatant at 500 nm)", "conditions": "for amount of the solubilized carbon nanotube (in words): at the investigated concentrations of Table 1; for A500: about 4 mg SWCNT-1 per 1 mL, ultra sound 5 min", "description": "(§1) The amount of the carbon nanotube dissolved in the solution can be measured, for example, by recovering the carbon nanotube by centrifugation at 70,000×g for 15 minutes and measuring the weight thereof. Alternatively, as described in the literature “Chem. Commun.”, P. 193 (2001), the concentration of the carbon nanotube has quite a high correlation with the absorbance at 500 nm, and the water-soluble xylan has almost no absorption at the wavelength. Thus, the concentration of the carbon nanotube is easily determined by measuring the absorbance of the solution at 500 nm, unless the solution contains any other substances having absorption at around 500 nm. In the case where a hardly soluble or insoluble substance is used as another substance, the method for measuring the concentration of the substance in the solution can be appropriately selected in depending on the substance.\nA solubilizing capability of the water-soluble xylan was compared with those of other saccharides. As the water-soluble xylan, glucuronoxylan (manufactured by Institute of Chemistry, Slovak Academy of Sciences; the number average molecular weight: 18,000; xylose residue: 4-O-methyl-D-glucuronic acid reside=10:1; no acetylation) was used. For comparison, various saccharide solutions of amylose (the number average molecular weight of 2,900), pectin (derived from citrus fruit), polygalacturonic acid, methylcellulose, fucoidan, xanthan gum, carboxymethyl cellulose, an Abelmoschus manihot extraction liquid, a Hydrangea paniculata extraction liquid, gum arabic, β-1,3-glucan (schizophyllan, curdlan), and xylo-oligosaccarides (polymerization degrees of 2 and 5) were used.\nTo 1 mL of each of the saccharide aqueous solutions, about 4 mg of the single layer carbon nanotube powder (SWCNT-1 manufactured by Shenzhen Nanotech Port Co., Ltd.) was added and then stirred for about 10 seconds with a Vortex mixer. The mixture was applied ultra sound with a bath type sonicator (UT-205 manufactured by Sharp Corporation) at a room temperature (15° C. to 20° C.) for 5 minutes to dissolve the carbon nanotube. The obtained solution was centrifuged at 2,200×g for 10 minutes, and then the supernatant thereof was collected. The amount of the dissolved carbon nanotube was estimated by measuring the absorbance of the supernatant at 500 nm. The saccharides vary from one another in solubility to water.\nWithin the same concentration range, the absorbances at 500 nm of the solutions containing another saccharide were 3 or less."}, "[2]": {"experiment": "Preparation of carbon nanotube solution with water-soluble xylan: absorbance at 500 nm and dissolved carbon nanotube", "description": "as §1\nAs water-soluble xylan, glucuronoxylan (manufactured by Institute of Chemistry, Slovak Academy of Sciences; the number average molecular weight: 18,000; xylose residue: 4-O-methyl-D-glucuronic acid reside=10:1; no acetylation; derived from beech) was used. To 1 L of a 0.4 mg/mL glucuronoxylan aqueous solution, 2 g of a single-layer carbon nanotube powder (SWCNT-1 manufactured by Shenzhen Nanotech Port Co., Ltd.) was added, and then stirred with a magnetic stirrer. The mixture was sequentially applied ultra sound by an ultra sound dispersing machine (Model UH-600SR, HO-F36 flanged chip, RD-36 continuous holder; manufactured by SMT Co., Ltd.) at a room temperature (15° C. to 20° C.) for 130 minutes at a flow rate of 1 L/min to dissolve and disperse the carbon nanotube. The obtained solution was centrifuged at 2,200×g for 15 minutes, and then collected the supernatant. The supernatant was a blackish solution.\nThe obtained solution was centrifuged at 70,000×g for 10 minutes to collect the carbon nanotube as a precipitate. To the obtained precipitate, 50 mL of the aforementioned glucuronoxylan aqueous solution was added, and the carbon nanotube was dispersed by applying an ultra sound at a room temperature (15° C. to 20° C.) for 5 minutes with a bath type sonicator (Branson 1200).\nTo 10 L of the water-soluble xylan solution prepared by Preparative Example 1, 5 g of a single-layer carbon nanotube powder (SWCNT-1 manufactured by Shenzhen Nanotech Port Co., Ltd.) was added and then stirred. The mixture was sequentially applied ultra sound by an ultra sound dispersing machine (Model UH-600SR, HO-F36 flanged chip, RD-36 continuous holder; manufactured by SMT Co., Ltd.) at a room temperature (15° C. to 20° C.) for 90 minutes at a flow rate of 1 L/min to dissolve and disperse the carbon nanotube. The obtained solution was centrifuged at 2,200×g for 15 minutes, and then the supernatant was collected. […]"}, "[3]": {"experiment": "Carbon nanotube solubilizing capability of saccharide aqueous solutions (absorbance of supernatant at 500 nm)", "conditions": "Example 2-2, FIG. 4; concentration dependency"}, "[4]": {"conditions": "saccharide 5 mg/mL (5.00), supernatant"}, "[5]": {"conditions": "saccharide 10.00 mg/mL, supernatant"}, "[6]": {"conditions": "saccharide 2.50 mg/mL, supernatant"}, "[7]": {"conditions": "saccharide 0.40 mg/mL, supernatant after 2,200xg 10 min"}, "[8]": {"conditions": "Example 1-1: 0.4 mg/mL glucuronoxylan, 2 g SWCNT-1 per 1 L, ultra sound 130 min, supernatant after 2,200xg 15 min"}, "[9]": {"conditions": "Example 1-1: 70,000xg precipitate re-dispersed in 50 mL glucuronoxylan solution, ultra sound 5 min"}, "[10]": {"conditions": "saccharide 1.00 mg/mL, supernatant"}, "[11]": {"conditions": "saccharide 2.00 mg/mL, supernatant"}}}
{"compound": "OC1OC[C@@H](O[C@@H]2OC[C@@H](O)[C@H](O)[C@H]2O)[C@H](O)[C@H]1O", "note": "(stereo partly drawn)", "values": [{"measurement": "amount of the solubilized carbon nanotube (in words)", "setting": "[1]", "result": "did not exhibit solubilization of carbon nanotube at all"}, {"measurement": "A500", "setting": "[1]; saccharide 16 mg/mL, supernatant", "result": 0.00}]}
{"compound": "OC1OC[C@@H](O[C@@H]2OC[C@@H](O[C@@H]3OC[C@@H](O[C@@H]4OC[C@@H](O[C@@H]5OC[C@@H](O)[C@H](O)[C@H]5O)[C@H](O)[C@H]4O)[C@H](O)[C@H]3O)[C@H](O)[C@H]2O)[C@H](O)[C@H]1O", "note": "(stereo partly drawn)", "values": [{"measurement": "amount of the solubilized carbon nanotube (in words)", "setting": "[1]", "result": "did not exhibit solubilization of carbon nanotube at all"}, {"measurement": "A500", "setting": "[1]; [4]", "result": 0.00}]}
{"compound": "amylose", "values": [{"measurement": "A500", "setting": "[1]; [4]", "result": 0.02}, {"measurement": "A500", "setting": "[1]; [5]", "result": 0.06}]}
{"compound": "carboxymethyl cellulose [Carboxy Methylcellulose]", "values": [{"measurement": "amount of the solubilized carbon nanotube (in words)", "setting": "[1]", "result": "close to that when using the water-soluble xylan"}, {"measurement": "A500", "setting": "[1]; [6]", "result": 5.64}, {"measurement": "A500", "setting": "[1]; [5]", "result": 2.37}]}
{"compound": "curdlan", "values": [{"measurement": "A500", "setting": "[1]; [7]", "result": 0.02}]}
{"compound": "fucoidan", "values": [{"measurement": "amount of the solubilized carbon nanotube (in words)", "setting": "[1]", "result": "close to that when using the water-soluble xylan"}, {"measurement": "A500", "setting": "[1]; [6]", "result": 1.33}, {"measurement": "A500", "setting": "[1]; [5]", "result": 6.80}]}
{"compound": "glucuronoxylan [Water-soluble Xylan]", "values": [{"measurement": "amount of the solubilized carbon nanotube (in words)", "setting": "[1]", "result": "largest"}, {"measurement": "A500", "setting": "[1]; [7]", "result": 10.70}, {"measurement": "absorbance at 500 nm", "setting": "[2]; [8]", "result": 7.57}, {"measurement": "carbon nanotube contained in solution", "setting": "[2]; [8]", "result": "about 282 μg/mL"}, {"measurement": "absorbance at 500 nm", "setting": "[2]; [9]", "result": 122}, {"measurement": "carbon nanotube contained in solution", "setting": "[2]; [9]", "result": "about 4.5 mg/mL"}, {"measurement": "saccharide concentration showing the maximum absorbance at 500 nm", "setting": "[3]", "result": 0.2, "unit": "mg/mL"}]}
{"compound": "gum arabic", "values": [{"measurement": "amount of the solubilized carbon nanotube (in words)", "setting": "[1]", "result": "close to that when using the water-soluble xylan"}, {"measurement": "A500", "setting": "[1]; [10]", "result": 0.73}, {"measurement": "A500", "setting": "[1]; [5]", "result": 4.30}]}
{"compound": "methylcellulose", "values": [{"measurement": "A500", "setting": "[1]; [10]", "result": 0.16}, {"measurement": "A500", "setting": "[1]; [11]", "result": 0.80}]}
{"compound": "pectin", "values": [{"measurement": "amount of the solubilized carbon nanotube (in words)", "setting": "[1]", "result": "close to that when using the water-soluble xylan"}, {"measurement": "A500", "setting": "[1]; [6]", "result": 3.48}, {"measurement": "A500", "setting": "[1]; [5]", "result": 6.28}]}
{"compound": "polygalacturonic acid", "values": [{"measurement": "amount of the solubilized carbon nanotube (in words)", "setting": "[1]", "result": "close to that when using the water-soluble xylan"}, {"measurement": "A500", "setting": "[1]; saccharide 1.90 mg/mL, supernatant", "result": 2.18}, {"measurement": "A500", "setting": "[1]; saccharide 2.70 mg/mL, supernatant", "result": 5.26}]}
{"compound": "schizophyllan", "values": [{"measurement": "A500", "setting": "[1]; saccharide 0.20 mg/mL, supernatant", "result": 0.12}, {"measurement": "A500", "setting": "[1]; [7]", "result": 0.95}]}
{"compound": "xanthan gum", "values": [{"measurement": "amount of the solubilized carbon nanotube (in words)", "setting": "[1]", "result": "close to that when using the water-soluble xylan"}, {"measurement": "A500", "setting": "[1]; [10]", "result": 2.79}, {"measurement": "A500", "setting": "[1]; [11]", "result": 6.91}]}
